Test results reported in ChEMBL document CHEMBL1156005, “Non-nucleoside inhibitors of HCV polymerase NS5B. Part 3: synthesis and optimization studies of benzothiazine-substituted tetramic acids” (Bioorg Med Chem Lett, 2009).

Legend:
Genome polyprotein = Genome polyprotein (Hepatitis C virus genotype 1b (isolate Con1) (HCV), UniProt Q9WMX2); assay: Inhibition of […] 1b con1 NS5B polymerase assessed as [3H]UTP incorporation into acid insoluble RNA product
[1] = Cytotoxicity against human 2209-23 cells assessed as […] by WST-1 assay; format: cell-based
[2] = Clearance in rat at 2 mg/kg, iv; format: ADME, organism-based; set-up: dose 2 mg/kg, route intravenous; conditions: in vivo
Hepatitis C virus [3] = assay: Antiviral activity against HCV 1b infected in human 2209-23 cells assessed as inhibition of virus RNA replication by renilla luciferase reporter gene assay; format: functional, organism-based, Hepacivirus hominis; conditions: genotype 1b
Cytochrome P450 3A4 = Cytochrome P450 3A4 (Homo sapiens, UniProt P08684); assay: Inhibition of CYP3A4 by time dependent inactivation assay; format: ADME
Cytochrome P450 3A4, sequence (P08684 whole entry): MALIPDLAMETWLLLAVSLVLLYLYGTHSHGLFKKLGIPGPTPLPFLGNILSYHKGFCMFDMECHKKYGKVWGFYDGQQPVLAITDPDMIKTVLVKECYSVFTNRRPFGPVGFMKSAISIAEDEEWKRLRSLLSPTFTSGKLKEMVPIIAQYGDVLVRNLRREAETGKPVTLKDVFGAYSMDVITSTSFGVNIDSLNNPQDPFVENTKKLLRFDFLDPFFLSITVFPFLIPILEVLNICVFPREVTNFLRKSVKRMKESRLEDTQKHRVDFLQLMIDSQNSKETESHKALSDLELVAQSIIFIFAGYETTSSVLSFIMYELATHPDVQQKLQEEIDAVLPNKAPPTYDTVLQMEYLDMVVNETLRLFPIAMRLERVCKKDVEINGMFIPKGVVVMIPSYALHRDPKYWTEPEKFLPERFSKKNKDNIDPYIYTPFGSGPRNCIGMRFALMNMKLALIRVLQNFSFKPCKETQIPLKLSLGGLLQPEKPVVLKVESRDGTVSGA

Hepatitis C virus [4] = assay: Ratio of EC50 for HCV 1a over EC50 for HCV 1b
Hepatitis C virus [5] = assay: Antiviral activity against HCV 1b infected in human 2209-23 cells assessed as inhibition of virus RNA replication by renilla luciferase reporter gene assay in presence of 5% fetal bovine serum; format: functional, organism-based, Hepacivirus hominis; conditions: genotype 1b
Hepatitis C virus [6] = assay: Antiviral activity against HCV 1b infected in human 2209-23 cells assessed as inhibition of virus RNA replication by renilla luciferase reporter gene assay in presence of 40% human serum; format: functional, organism-based, Hepacivirus hominis; conditions: genotype 1b
Hepatitis C virus [7] = assay: Selectivity ratio, EC50 for HCV 1b in presence of 40% human serum to EC50 for HCV 1b in presence of 5% fetal bovine serum; format: functional, Hepacivirus hominis, genotype 1b
[8] = Permeability by PAMPA; format: ADME; conditions: read-out: permeability
[9] = Metabolic stability in rat liver microsomes; format: ADME, Microsome; conditions: read-out: Stability
Caco-2 = assay: Efflux ratio of permeability from […] side in human Caco-2 cells after 21 days; format: ADME, cell-based; conditions: caco-2, 504 h
[10] = Tmax in po dosed rat; format: ADME, organism-based; conditions: in vivo
[11] = AUC in rat at 5 mg/kg; format: ADME, organism-based; set-up: dose 5 mg/kg; conditions: plasma
[12] = Oral bioavailability in rat; format: ADME, organism-based; conditions: in vivo

Genome polyprotein, sequence (Q9WMX2 2420-3010 limits assumed): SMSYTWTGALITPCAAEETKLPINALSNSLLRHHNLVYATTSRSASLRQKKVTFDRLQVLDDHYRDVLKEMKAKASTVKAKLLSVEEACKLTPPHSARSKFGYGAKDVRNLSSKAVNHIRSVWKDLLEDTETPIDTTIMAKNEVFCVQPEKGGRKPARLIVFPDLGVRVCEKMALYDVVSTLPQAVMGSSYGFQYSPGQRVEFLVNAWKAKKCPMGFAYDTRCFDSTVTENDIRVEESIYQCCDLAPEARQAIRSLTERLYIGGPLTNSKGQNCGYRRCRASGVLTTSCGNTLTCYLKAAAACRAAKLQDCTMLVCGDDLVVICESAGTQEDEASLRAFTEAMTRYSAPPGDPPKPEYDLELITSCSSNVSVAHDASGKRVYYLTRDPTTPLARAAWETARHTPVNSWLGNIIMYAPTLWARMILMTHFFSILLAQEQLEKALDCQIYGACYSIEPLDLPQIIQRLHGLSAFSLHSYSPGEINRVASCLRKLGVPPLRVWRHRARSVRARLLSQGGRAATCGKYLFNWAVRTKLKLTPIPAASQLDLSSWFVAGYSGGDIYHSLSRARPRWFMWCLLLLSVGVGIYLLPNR

Compound | IC50 (Genome polyprotein) [nM] | CC50 [1] [nM] | clearance [2] [mL/min/kg] | EC50 (Hepatitis C virus [3]) [nM] | inhibition (INH) (Cytochrome P450 3A4) [%] | Ratio EC50 (Hepatitis C virus [4]) | EC50 (Hepatitis C virus [5]) [nM] | EC50 (Hepatitis C virus [6]) [nM] | Ratio EC50 (Hepatitis C virus [7]) | Papp [8] [×10⁻⁶ cm/s] | microsomal CLint [9] [µL/min/mg] | Ratio (Caco-2) | Tmax [10] [h] | AUC [11] [ng·h/mL] | bioavailability [12] [%]
CC(C)(C)[C@H]1C(O)=C(C2=CS(=O)(=O)c3cc(NS(C)(=O)=O)cc(F)c3N2)C(=O)N1Cc1ccc(F)cc1 | 9 | > 50000 | 36 | 36 | 8.5 | 4 | – | – | – | – | – | – | – | – | –
CC(C)(CO)[C@H]1C(O)=C(C2=CS(=O)(=O)c3cc(NS(C)(=O)=O)ccc3N2)C(=O)N1Cc1ccc(F)cc1 | – | – | – | – | 20.5 | – | – | – | – | – | – | – | – | – | –
Cc1cc(CN2C(=O)C(C3=CS(=O)(=O)c4cc(NS(C)(=O)=O)ccc4N3)=C(O)[C@@H]2C(C)(C)C)ccc1F | 3 | > 50000 | 101 | – | 39 | 4 | 12 | 122 | 10.2 | 1.62 | 327 | – | – | – | –
CC(C)(C)CCN1C(=O)C(C2=CS(=O)(=O)c3cc(NS(C)(=O)=O)ccc3N2)=C(O)[C@@H]1C(C)(C)C | 8 | > 50000 | > 100 | – | 23 | – | 16 | 65 | 4.1 | 1.8 | 79 | 14 | – | – | –
CCC(C)(C)[C@H]1C(O)=C(C2=CS(=O)(=O)c3cc(NS(C)(=O)=O)ccc3N2)C(=O)N1Cc1ccc(F)c(C)c1 | – | – | – | 24 | – | – | – | – | – | – | – | – | – | – | –
CC(=O)C1=C(C2=C(O)[C@H](C(C)(C)C)N(Cc3ccc(F)cc3)C2=O)Nc2ccc(NS(C)(=O)=O)cc2S1(=O)=O | 4 | > 50000 | – | 20 | 15.1 | – | – | – | – | – | – | – | – | – | –
CC(C)(C)[C@@H]1NC(=O)C(C2=CS(=O)(=O)c3cc(NS(C)(=O)=O)ccc3N2)=C1O | – | – | – | – | 5.7 | – | – | – | – | – | – | – | – | – | –
CC(C)(C)[C@H]1C(O)=C(C2=CS(=O)(=O)c3cc(C#N)ccc3N2)C(=O)N1Cc1ccc(F)cc1 | 1200 | > 50000 | – | 6850 | 10.9 | – | – | – | – | – | – | – | – | – | –
CC(C)(C)[C@H]1C(O)=C(C2=CS(=O)(=O)c3cc(NS(C)(=O)=O)ccc3N2)C(=O)N1Cc1ccc(F)cn1 | 42 | > 50000 | – | – | – | – | 201 | 1720 | 8.5 | – | – | – | – | – | –
CC(C)(C)[C@H]1C(O)=C(C2=C(Cl)S(=O)(=O)c3cc(NS(C)(=O)=O)ccc3N2)C(=O)N1Cc1ccc(F)cc1 | 2 | > 50000 | – | 4 | 31 | – | – | – | – | – | – | – | – | – | –
CC(C)(C)[C@H]1C(O)=C(C2=C(C(N)=O)S(=O)(=O)c3cc(NS(C)(=O)=O)ccc3N2)C(=O)N1Cc1ccc(F)cc1 | 11 | > 50000 | 5 | 16 | 17.8 | 4 | – | – | – | – | – | – | – | – | –
CC1=C(C2=C(O)[C@H](C(C)(C)C)N(Cc3ccc(F)cc3)C2=O)Nc2ccc(NS(C)(=O)=O)cc2S1(=O)=O | 10 | > 50000 | – | 78 | 21.9 | – | – | – | – | – | – | – | – | – | –
CC(C)CCN1C(=O)C(C2=CS(=O)(=O)c3cc(NS(C)(=O)=O)ccc3N2)=C(O)[C@@H]1C(C)(C)C | 5 | > 50000 | – | – | – | – | 30 | 660 | 22 | – | – | – | – | – | –
CC(C)(C)[C@H]1C(O)=C(C2=CS(=O)(=O)c3cc(NS(C)(=O)=O)ccc3N2)C(=O)N1Cc1ccc(F)c(Cl)c1 | 5 | > 50000 | 86 | – | 41 | – | 9 | 163 | 18.1 | 0.98 | 84 | – | – | – | –
CC(C)(C)[C@H]1C(O)=C(C2=CS(=O)(=O)c3cc(NS(C)(=O)=O)ccc3N2)C(=O)N1Cc1ccc(F)cc1 | 7 | > 50000 | 101 | 5 | 41 | 4 | 12 | 33 | 2.7 | 1.4 | 32 | 25 | 1.3 | 189 | 22
CC(C)(C)[C@H]1C(O)=C(C2=CS(=O)(=O)c3cc(F)ccc3N2)C(=O)N1Cc1ccc(F)cc1 | 338 | > 50000 | – | 1870 | 7.6 | – | – | – | – | – | – | – | – | – | –
CC(C)(C)[C@H]1C(O)=C(C2=CS(=O)(=O)c3cc(NS(C)(=O)=O)ccc3N2)C(=O)N1Cc1ccc(F)cc1F | 13 | > 50000 | – | – | – | 4 | 35 | 226 | 6.5 | – | – | – | – | – | –
CC(C)(C)[C@H]1C(O)=C(C2=CS(=O)(=O)c3cc([N+](=O)[O-])ccc3N2)C(=O)N1Cc1ccc(F)cc1 | 1800 | > 50000 | – | 16500 | 0.4 | – | – | – | – | – | – | – | – | – | –
COc1cc(CN2C(=O)C(C3=CS(=O)(=O)c4cc(NS(C)(=O)=O)ccc4N3)=C(O)[C@@H]2C(C)(C)C)ccc1F | 4 | > 50000 | – | – | – | – | 28 | 422 | 15.1 | – | – | – | – | – | –
CC(C)(C)[C@H]1C(O)=C(C2=CS(=O)(=O)c3cc(NS(C)(=O)=O)ccc3N2)C(=O)N1Cc1ccccc1 | 8 | > 50000 | 144 | – | 19 | 4 | 32 | 139 | 4.3 | 1.8 | – | 11 | – | – | –
CC(C)(C)[C@H]1C(O)=C(C2=C(C#N)S(=O)(=O)c3cc(NS(C)(=O)=O)ccc3N2)C(=O)N1Cc1ccc(F)cc1 | 6 | > 50000 | – | 16 | 24.7 | 4 | – | – | – | – | – | – | – | – | –
